# Laboratory results: ChEMBL document CHEMBL1132504, “Nucleosides and nucleotides. 183. Synthesis of 4'alpha-branched thymidines as a new type of antiviral agent” (Bioorg Med Chem Lett, 1999)
# Key:
# [1] = system: Human immunodeficiency virus 1; experiment: Antiviral activity against HIV-1 (human immunodeficiency virus type 1); type: functional, organism-based
# [2] = Cytotoxicity against HIV-1 (human immunodeficiency virus type 1); type: functional; settings: Human immunodeficiency virus 1
# [3] = Cytotoxicity against HSV-1 (herpes simplex virus); type: functional; settings: Human alphaherpesvirus 1
# Human alphaherpesvirus 1 = experiment: Antiviral activity against HSV-1 (herpes simplex virus); type: functional, organism-based
SMILES,EC50 [1],CC50 [2],CC50 [3],EC50 (Human alphaherpesvirus 1)
C#C[C@]1(CO)O[C@@H](n2cc(C)c(=O)[nH]c2=O)C[C@@H]1O,0.83 µM,> 100 µM,> 100 µM,6.8 µM
Cc1cn([C@H]2C[C@H](O)[C@](CO)(CCO)O2)c(=O)[nH]c1=O,> 4.7 µM,4.7 µM,> 100 µM,> 100 µM
Cc1cn([C@H]2C[C@H](N=[N+]=[N-])[C@@H](CO)O2)c(=O)[nH]c1=O [ZIDOVUDINE],0.0017 µM,16.5 µM,,
C=C[C@]1(CO)O[C@@H](n2cc(C)c(=O)[nH]c2=O)C[C@@H]1O,6.1 µM,> 100 µM,> 100 µM,1.9 µM
Nc1nc2c(ncn2COCCO)c(=O)[nH]1 [ACYCLOVIR],,,> 100 µM,
Cc1cn([C@H]2C[C@@H]3OCC[C@]3(CO)O2)c(=O)[nH]c1=O,> 100 µM,> 100 µM,> 100 µM,> 100 µM
CC[C@]1(CO)O[C@@H](n2cc(C)c(=O)[nH]c2=O)C[C@@H]1O,16.1 µM,> 100 µM,> 100 µM,7.4 µM
